In paper PMC4879371, “Antitrypanosomal Activities and Mechanisms of Action of Novel Tetracyclic Iridoids from Morinda lucida Benth” (Antimicrobial Agents and Chemotherapy, 2016):
Entries after “also recorded” stand apart in the source; their conditions may differ.

Key:
[1] = test system: paraflagellum rod protein subunit 2, PFR-2; assay: PFR-2 expression, immunohistochemistry and Western blotting with anti-PFR-2 antibody; type: cell-based, Trypanosoma brucei brucei; details: for expression of PFR-2 protein: 24 h, 5 μM molucidin, 15 μM ML-2-3, 0.43 μM ML-F52
Description: (§1) To investigate the effect of the compounds on parasite morphology and their flagellum function, immunohistochemistry using anti-paraflagellum rod protein anti-PFR-2 antibody ([37]), was performed with molucidin-, ML-2-3-, and ML-F52-treated trypanosome parasites. […] Parasites were then harvested after incubation with or without appropriate concentrations of compounds and were fixed with 4% paraformaldehyde in 8-well chamber slides at room temperature for 5 min. Washing steps were carried out with 500 μl of phosphate-buffered saline (PBS) twice and 0.1% Triton X-100 in PBS (PBST) at room temperature for 5 min each. Blocking reagent (500 μl; 3% bovine serum albumin [BSA] in PBS) was added and incubated for 30 min at room temperature. Primary and secondary antibody incubation with parasites was done for 1 h each, and 4′,6-diamidino-2-phenylindole (DAPI) (5 μg/ml DAPI in PBS) staining was done for 10 min. After the washing steps presented above, the slides were mounted using PermaFluor mounting reagent and were covered with coverslips. The slides were observed under an Olympus fluorescence microscope (Olympus BX53) to detect any phenotypic changes in T. brucei brucei parasites.
Trypanosome parasites were incubated with or without compound in vitro and were lysed with 0.5% NP-40 ([38]). Protein concentration of the lysate was determined using the Bio-Rad protein assay reagents (Bio-Rad, USA). SDS-PAGE was run using Invitrogen NuPAGE 12% Bis-Tris gel. The proteins were blotted on a polyvinylidene difluoride (PVDF) membrane (Immobilon P; Millipore, USA), added with mouse anti-PFR-2 antibody, 1:500 dilution, and incubated at 4°C overnight. The membrane was then incubated with anti-mouse horseradish peroxidase (HRP) antibodies, 1:2,000 dilution, for an hour at room temperature. Chemiluminescence HRP substrates A and B (Immobilon Western; Millipore, USA) were added to the membrane in a ratio of 1:1. Detection was done using the ATTO cooled charge-coupled device (CCD) camera system EzCapture II (ATTO Corporation, Japan).
To investigate the sequence in which the events (apoptosis induction, PFR-2 suppression, and cell cycle alteration) involved in mechanisms of action occur, we examined the time course for the three events using ML-2-3-treated parasites. Trypanosoma brucei parasites were incubated for 0, 0.5, 1.5, 3, 6, and 24 h with 15 μM ML-2-3 and were then subjected to both Nexin assay and Western blot analyses using the PFR-2 antibody. We further investigated the time course of cell cycle alteration using ML-2-3-treated parasites at similar concentrations and incubation periods.

Chang Liver = assay: MTT cytotoxicity assay, Chang Liver; type: cell-based, human; details: IC50 Chang liver / IC50 trypanosomes
Description: (§2) The cytotoxicity of the compounds to mammalian cells were determined using four human normal cell lines, namely, NB1RGB (skin fibroblast) and HF-19 (lung fibroblast) obtained from the RIKEN Bio Resource Center Cell Bank (Japan) and Chang Liver and Hs888Lu (lung) obtained from the European Collection of Authenticated Cell Cultures (ECACC). NB1RGB and HF-19 were maintained in minimum essential medium-α (MEM-α). Chang Liver and Hs888Lu were grown in Eagle's minimum essential medium (EMEM) and RPMI 1640, respectively. All of these media were supplemented with 10% fetal bovine serum (FBS) and 1% penicillin-streptomycin and were then incubated at 37°C under 5% CO2 in fully humidified conditions.
(§3) Cytotoxicity was determined using a 3-(4,5-dimethylthiazol-2-yl)-2,5-diphenyltetrazolium bromide (MTT) assay. The cells were treated with molucidin, ML-2-3, or ML-F52 at concentrations of ≤50 μM for 48 h. Cells were plated at a density of 0.5 × 10^4 cells/well into 96-well plates. After 24 h of incubation, cells were treated with various concentrations of each of the purified compounds for 48 h. Then, MTT solution was added to each well, and the cells were incubated for another 4 h. The precipitated MTT-formazan product was dissolved in 0.04 N HCl-isopropanol, and the amount of formazan was measured at a wavelength of 595 nm by a microplate reader (Immuno Mini NJ-2300; Nihon InterMed, Tokyo, Japan). Cytotoxicity was calculated as the percentage of live cells relative to the control culture. The selectivity index (SI) was expressed as the ratio of the IC50 obtained for mammalian cells and the IC50 for trypanosomes.

[2] = MTT cytotoxicity assay, Chang Liver; type: cell-based, human; details: human, Chang Liver cells; Chang liver normal liver, 48 h
Description: as §2, §3

Plasmodium falciparum = assay: Preliminary in vitro anti-Plasmodium activity; type: cell-based; details: preliminary studies, unpublished data
HF-19 (lung fibroblast) = assay: MTT cytotoxicity assay, HF-19; type: cell-based, human; details: IC50 HF-19 / IC50 trypanosomes
Description: as §2, §3

[3] = MTT cytotoxicity assay, HF-19; type: cell-based, human; details: human, HF-19 lung fibroblast cells; HF-19 normal lung fibroblast, 48 h
Description: as §2, §3

[4] = test system: T. brucei brucei (TC-221 strain); type: in vivo; details: for survival of mice / death, days postinfection: vehicle control died at day 9
Description: Six-week-old BALB/c female mice with an average weight of 20 g were infected with 1 × 10^3 cells of T. brucei brucei (TC-221 strain) and were randomly grouped into four cages containing five mice each. The first 3 groups were treated with 30 mg/kg of body weight of molucidin, ML-2-3, and ML-F52, respectively, 6 h postinfection and continued daily afterward for 5 consecutive days. The last group received physiological saline containing <0.1% of DMSO as a vehicle control. Parasitemia and weight were monitored daily until 20 days postinfection. The experiments were conducted in compliance with the internationally accepted principles for laboratory animal use and care as contained in the Canadian Council on Animal Care guidelines on animal use protocol review.

[5] = test system: T. brucei brucei parasites; assay: Parasite morphology, DAPI / anti-PFR-2 immunohistochemistry; type: cell-based, Trypanosoma brucei brucei; details: 24 h; 5 μM molucidin, 15 μM ML-2-3, 0.43 μM ML-F52
Description: as §1

[6] = MTT cytotoxicity assay, NB1RGB; type: cell-based, human; details: human, NB1RGB skin fibroblast cells; NB1RGB normal skin fibroblast, 48 h
Description: as §2, §3

NB1RGB (skin fibroblast) = assay: MTT cytotoxicity assay, NB1RGB; type: cell-based, human; details: IC50 NB1RGB / IC50 trypanosomes
Description: as §2, §3

[7] = test system: Trypanosoma parasites (T. brucei brucei); assay: FACS Nexin assay for apoptosis in trypanosome parasites; type: cell-based; details: 24 h; for apoptosis induction: molucidin 6.25 μM, ML-2-3 6.25 μM, ML-F52 0.78 μM; for minimum concentration inducing strong apoptosis: 0 μM to 50 μM tested
Description: Seeding and incubation of parasites with compounds were done under the same conditions as those for the alamarBlue assay as described above without addition of the alarmarBlue reagent. In this case, after 24 h of incubation, Guava reagents for Nexin and cell cycle assays were added, and each assay was performed using the Millipore Guava easyCyte 5HT fluorescence-activated cell sorter (FACS) machine according to the manufacturer's instruction. The Nexin assay and subsequent FACS analysis allowed for detection of markers of apoptosis induction by the plant materials. Similarly, the cell cycle assay and subsequent FACS analysis allowed for detection of markers of cell cycle alteration by the plant materials. […]

[8] = 30 mg/kg intraperitoneally, 5 consecutive days

## COC(=O)C1=CO[C@@H]2O[C@H]3/C(=C\c4ccc(O)c(OC)c4)C(=O)O[C@]34C=C[C@H]1[C@H]24 [molucidin]
[1]
  expression of PFR-2 protein: significant expression of PFR-2
Chang Liver
  SI (selectivity index): 7.35
[2]
  IC50 at 48 h: 9.34 µM
Plasmodium falciparum
  anti-Plasmodium activity in vitro: anti-Plasmodium activities
HF-19 (lung fibroblast)
  SI (selectivity index): 11.21
[3]
  IC50 at 48 h: 14.2 µM
[4]; mouse, in vivo
  toxicity in mice: severe toxicity
[5]
  effect on nuclei and kinetoplast (DAPI): intact kinetoplast but totally disintegrated nuclei
  effect on parasite cell form: stumpy-like parasites
[6]
  IC50 at 48 h: 7.11 µM
NB1RGB (skin fibroblast)
  SI (selectivity index): 5.60
[7]; 6.25 μM
  early-stage apoptotic cells (lower right quadrant): 1.1%
  late-stage apoptotic cells (upper right quadrant): 0%
[7]
  apoptosis induction: no significant induction of apoptosis; also recorded: no significant apoptotic induction

## COc1cc(/C=C2/C(=O)O[C@]34C=C[C@@H]5C(C(=O)O)=CO[C@H](O[C@@H]23)[C@@H]54)ccc1O [ML-2-3]
[1]; 15 μM ML-2-3, time course Western blot
  time of exposure to significant suppression of PFR-2 protein expression: ≤ 0.5 h
[1]
  expression of PFR-2 protein: suppression of PFR-2 expression; also recorded: suppressed the expression of PFR-2 proteins
Chang Liver
  SI (selectivity index): >13.33
[2]
  IC50 at 48 h: > 50 µM
Plasmodium falciparum
  anti-Plasmodium activity in vitro: anti-Plasmodium activities
HF-19 (lung fibroblast)
  SI (selectivity index): >13.33
[3]
  IC50 at 48 h: > 50 µM
[4]; [8]
  survival of mice / death, days postinfection: 9 days
[5]
  effect on nuclei and kinetoplast (DAPI): fragmented nuclei with normal kinetoplast
  effect on parasite cell form: typical short stumpy form
[6]
  IC50 at 48 h: > 50 µM
NB1RGB (skin fibroblast)
  SI (selectivity index): >13.33
[7]
  minimum concentration inducing strong apoptosis: 6.25 µM
  apoptosis induction: significant apoptosis induction
[7]; 6.25 μM
  early-stage apoptotic cells (lower right quadrant): 7.8%
  late-stage apoptotic cells (upper right quadrant): 4.4%

## CCOC(=O)C1=CO[C@@H]2O[C@H]3/C(=C\c4ccc(O)c(OC)c4)C(=O)O[C@]34C=C[C@H]1[C@H]24 [ML-F52]
[1]
  expression of PFR-2 protein: suppression of PFR-2 expression; also recorded: suppressed the expression of PFR-2 proteins
Chang Liver
  SI (selectivity index): 42.16
[2]
  IC50 at 48 h: 18.1 µM
Plasmodium falciparum
  anti-Plasmodium activity in vitro: anti-Plasmodium activities
HF-19 (lung fibroblast)
  SI (selectivity index): 25.44
[3]
  IC50 at 48 h: 10.9 µM
[4]; [8]
  cure for 20 days postinfection: 100%
  survival of mice / death, days postinfection: 20 days
[5]
  effect on nuclei and kinetoplast (DAPI): fragmented nuclei with normal kinetoplast
  effect on parasite cell form: abnormal cells that had two sets of kinetoplasts and flagellum with fragmented nuclei
[6]
  IC50 at 48 h: 4.74 µM
NB1RGB (skin fibroblast)
  SI (selectivity index): 11.02
[7]
  minimum concentration inducing strong apoptosis: 0.78 µM
  apoptosis induction: strongest induction of apoptosis
[7]; 0.78 μM
  early-stage apoptotic cells (lower right quadrant): 14.2%
  late-stage apoptotic cells (upper right quadrant): 2.3%
